Assay results reported in PubChem BioAssay AID276 (DTP/NCI, 2004).
Where “and” joins values, the source holds several entries; their conditions need not be identical. Equal entries are not always repeated. Toxic doses and inconclusive results are not listed.

Tested on: B6C3F1 mice, Lewis lung carcinoma iv, survival T/C
Test: NCI In Vivo Anticancer Drug Screen. Data for tumor model Lewis Lung Carcinoma (intravenous) in B6C3F1 mice
Details: endpoint: median survival time, higher = longer survival
In short: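 Antitumor activity is assessed in tumor-bearing mice by comparing survival after compound treatment against vehicle-treated controls, reported as a T/C ratio.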

[1] = dose: 25.0 mg/kg/injection, schedule: Q01DX009 (ip), vehicle: Klucel (hydroxypropylcellulose) (HPC)
[2] = dose: 50.0 mg/kg/injection, schedule: Q01DX009 (ip), vehicle: Klucel (hydroxypropylcellulose) (HPC)
[3] = dose: 100.0 mg/kg/injection, schedule: Q01DX009 (ip), vehicle: Klucel (hydroxypropylcellulose) (HPC)
[4] = dose: 200.0 mg/kg/injection, schedule: Q01DX009 (ip), vehicle: Klucel (hydroxypropylcellulose) (HPC)
[5] = dose: 12.5 mg/kg/injection, schedule: Q01DX009 (ip), vehicle: suspension in saline
[6] = dose: 25.0 mg/kg/injection, schedule: Q01DX009 (ip), vehicle: suspension in saline
[7] = dose: 50.0 mg/kg/injection, schedule: Q01DX009 (ip), vehicle: suspension in saline
[8] = dose: 100.0 mg/kg/injection, schedule: Q01DX009 (ip), vehicle: suspension in saline
[9] = dose: 200.0 mg/kg/injection, schedule: Q01DX009 (ip), vehicle: suspension in saline
[10] = dose: 50.0 mg/kg/injection, schedule: Q01DX009 (ip), vehicle: saline
[11] = dose: 100.0 mg/kg/injection, schedule: Q01DX009 (ip), vehicle: saline
[12] = dose: 200.0 mg/kg/injection, schedule: Q01DX009 (ip), vehicle: saline
[13] = dose: 6.25 mg/kg/injection, schedule: Q01DX009 (ip), vehicle: saline with Tween-80
[14] = dose: 12.5 mg/kg/injection, schedule: Q01DX009 (ip), vehicle: saline with Tween-80
[15] = dose: 25.0 mg/kg/injection, schedule: Q01DX009 (ip), vehicle: saline with Tween-80
[16] = dose: 50.0 mg/kg/injection, schedule: Q01DX009 (ip), vehicle: saline with Tween-80
[17] = dose: 12.5 mg/kg/injection, schedule: Q01DX009 (ip), vehicle: saline
[18] = dose: 25.0 mg/kg/injection, schedule: Q01DX009 (ip), vehicle: saline
[19] = dose: 100.0 mg/kg/injection, schedule: Q01DX009 (ip), vehicle: saline with Tween-80

SMILES: O=NN(CCF)C(=O)NC1CCC(=O)NC1=O (stereo not given)
- T/C (dose: 2.5 mg/kg/injection, schedule: Q01DX009 (ip), vehicle: saline): 118 % of control
- T/C (dose: 10.0 mg/kg/injection, schedule: Q01DX009 (ip), vehicle: saline): 166 % of control
- T/C (dose: 20.0 mg/kg/injection, schedule: Q01DX009 (ip), vehicle: saline): 312 % of control

SMILES: COC(=O)Nc1nc2ccc(SC)cc2c(=O)[nH]1
- T/C [1]: 99 % of control
- T/C [2]: 110 % of control
- T/C [3]: 100 % of control
- T/C [4]: 110 % of control

SMILES: COc1ccc(/C=C/C(=O)c2cc(C(=O)O)c(OC)cc2OC)cc1OC
- T/C [5]: 98 % of control
- T/C [6]: 104 % of control
- T/C [7]: 98 % of control
- T/C [8]: 90 % of control
- T/C [9]: 95 % of control

SMILES: NC(=O)NO
- T/C [10]: 94 % of control
- T/C [11]: 98 % of control
- T/C [12]: 96 % of control

SMILES: CC(C)CCC(=O)c1ccoc1
- T/C (dose: 0.12 mg/kg/injection, schedule: Q03HX027 (ip), vehicle: saline with Tween-80): 99 % of control
- T/C (dose: 0.25 mg/kg/injection, schedule: Q03HX027 (ip), vehicle: saline with Tween-80): 97 % of control
- T/C (dose: 0.5 mg/kg/injection, schedule: Q03HX027 (ip), vehicle: saline with Tween-80): 109 % of control
- T/C (dose: 1.0 mg/kg/injection, schedule: Q03HX027 (ip), vehicle: saline with Tween-80): 117 % of control

SMILES: OCC(O)C(O)C(O)C(O)CO (stereo not given)
- T/C (dose: 75.0 mg/kg/injection, schedule: Q01DX009 (ip), vehicle: saline): 100 % of control
- T/C (dose: 150.0 mg/kg/injection, schedule: Q01DX009 (ip), vehicle: saline): 96 % of control
- T/C (dose: 300.0 mg/kg/injection, schedule: Q01DX009 (ip), vehicle: saline): 92 % of control
- T/C (dose: 600.0 mg/kg/injection, schedule: Q01DX009 (ip), vehicle: saline): 95 % of control
- T/C (dose: 1200.0 mg/kg/injection, schedule: Q01DX009 (ip), vehicle: saline): 98 % of control

SMILES: CCCCCCCCCCCCCC#CC(=O)O
- T/C (dose: 3.12 mg/kg/injection, schedule: Q01DX009 (ip), vehicle: saline with Tween-80): 97 % of control
- T/C [13]: 93 % of control
- T/C [14]: 101 % of control
- T/C [15]: 89 % of control
- T/C [16]: 93 % of control

SMILES: C=C(C)[C@@H]1CCc2c(O)c(O)c(=O)cc(C)c2C1
- T/C (dose: 3.12 mg/kg/injection, schedule: Q01DX009 (ip), vehicle: Klucel (hydroxypropylcellulose) (HPC)): 90 % of control
- T/C (dose: 6.25 mg/kg/injection, schedule: Q01DX009 (ip), vehicle: Klucel (hydroxypropylcellulose) (HPC)): 92 % of control
- T/C [1]: 102 % of control
- T/C [2]: 97 % of control
- T/C [3]: 90 % of control

SMILES: CC(C)C(N)C(=O)Nc1nncs1 (stereo not given)
- T/C [17]: 108 % of control
- T/C [18]: 104 % of control
- T/C [10]: 114 % of control and 121 % of control
- T/C (dose: 50.62 mg/kg/injection, schedule: Q01DX009 (ip), vehicle: saline): 103 % of control
- T/C (dose: 50.62 mg/kg/injection, schedule: Q01DX009 (ip), vehicle: suspension in saline): 110 % of control
- T/C (dose: 67.5 mg/kg/injection, schedule: Q01DX009 (ip), vehicle: saline): 103 % of control
- T/C (dose: 67.5 mg/kg/injection, schedule: Q01DX009 (ip), vehicle: suspension in saline): 124 % of control
- T/C (dose: 90.0 mg/kg/injection, schedule: Q01DX009 (ip), vehicle: saline): 100 % of control
- T/C [11]: 165 % of control and 245 % of control
- T/C (dose: 120.0 mg/kg/injection, schedule: Q01DX009 (ip), vehicle: saline): 112 % of control
- T/C (dose: 120.0 mg/kg/injection, schedule: Q01DX009 (ip), vehicle: suspension in saline): 157 % of control
- T/C (dose: 160.0 mg/kg/injection, schedule: Q01DX009 (ip), vehicle: saline): 117 % of control

SMILES: COc1cc2cc[n+](C)c(Cc3ccccc3)c2cc1OC
- T/C (dose: 3.13 mg/kg/injection, schedule: Q01DX009 (ip), vehicle: saline with Tween-80): 112 % of control
- T/C [13]: 120 % of control
- T/C [14]: 96 % of control
- T/C [15]: 99 % of control
- T/C [16]: 91 % of control

SMILES: [Cl][Co]([Cl])[Cl].[NH-]CC[N-]CC[NH-]
- T/C [18]: 103 % of control
- T/C [10]: 96 % of control
- T/C [11]: 93 % of control

SMILES: Cc1cc(N)c2ccccc2[n+]1CCCCCCCCCC[n+]1c(C)cc(N)c2ccccc21
- T/C (dose: 0.12 mg/kg/injection, schedule: Q01DX026 (ip), vehicle: dextrose): 93 % of control
- T/C (dose: 0.25 mg/kg/injection, schedule: Q01DX026 (ip), vehicle: dextrose): 104 % of control
- T/C (dose: 0.5 mg/kg/injection, schedule: Q01DX026 (ip), vehicle: dextrose): 96 % of control
- T/C (dose: 0.75 mg/kg/injection, schedule: Q01DX009 (ip), vehicle: dextrose): 101 % of control
- T/C (dose: 1.0 mg/kg/injection, schedule: Q01DX026 (ip), vehicle: dextrose): 99 % of control
- T/C (dose: 1.5 mg/kg/injection, schedule: Q01DX009 (ip), vehicle: dextrose): 95 % of control
- T/C (dose: 2.0 mg/kg/injection, schedule: Q01DX026 (ip), vehicle: dextrose): 103 % of control
- T/C (dose: 3.0 mg/kg/injection, schedule: Q01DX009 (ip), vehicle: dextrose): 104 % of control

SMILES: Nc1nc(=S)c2ncn(C3CC(O)C(CO)O3)c2[nH]1 (stereo not given)
- T/C [5]: 113 % of control
- T/C [6]: 100 % of control
- T/C [7]: 108 % of control
- T/C [8]: 103 % of control
- T/C [9]: 95 % of control
- T/C (dose: 400.0 mg/kg/injection, schedule: Q01DX009 (ip), vehicle: suspension in saline): 90 % of control

SMILES: OC1(CSc2ccccc2)CCCCC1
- T/C [14]: 95 % of control and 119 % of control
- T/C [15]: 107 % of control
- T/C [16]: 94 % of control and 114 % of control
- T/C [19]: 103 % of control and 106 % of control
- T/C (dose: 200.0 mg/kg/injection, schedule: Q01DX009 (ip), vehicle: saline with Tween-80): 100 % of control and 105 % of control
- T/C (dose: 400.0 mg/kg/injection, schedule: Q01DX009 (ip), vehicle: saline with Tween-80): 108 % of control and 110 % of control

SMILES: COc1cc(NCc2ccc3nc(N)nc(N)c3c2C)cc(OC)c1OC
- T/C (dose: 3.12 mg/kg/injection, schedule: Q01DX009 (ip), vehicle: water): 94 % of control
- T/C (dose: 6.25 mg/kg/injection, schedule: Q01DX009 (ip), vehicle: water): 102 % of control
- T/C (dose: 12.5 mg/kg/injection, schedule: Q01DX009 (ip), vehicle: water): 97 % of control and 124 % of control
- T/C (dose: 25.0 mg/kg/injection, schedule: Q01DX009 (ip), vehicle: water): 101 % of control and 111 % of control
- T/C (dose: 50.0 mg/kg/injection, schedule: Q01DX009 (ip), vehicle: water): 113 % of control and 117 % of control

SMILES: O=c1nc(-c2ccco2)sc(=O)[nH]1
- T/C (dose: 12.0 mg/kg/injection, schedule: Q01DX009 (ip), vehicle: Klucel (hydroxypropylcellulose) (HPC)): 112 % of control
- T/C [1]: 96 % of control
- T/C [2]: 105 % of control
- T/C [3]: 116 % of control
- T/C [4]: 104 % of control

SMILES: Nc1nc2ccc(NCc3ccc(C(=O)NC(CCC(=O)O)C(=O)O)cc3)cc2c(=O)[nH]1 (stereo not given)
- T/C [13]: 111 % of control
- T/C [14]: 97 % of control
- T/C [15]: 100 % of control
- T/C [16]: 116 % of control
- T/C [19]: 119 % of control

SMILES: NS(=O)(=O)OCCCCCCCOS(N)(=O)=O
- T/C [14]: 91 % of control
- T/C [15]: 98 % of control
- T/C [16]: 88 % of control

SMILES: C[C@]12CCC(=O)C=C1CC[C@@H]1[C@@H]2C(=O)C[C@@]2(C)[C@H]1CC[C@]2(O)C(=O)CO
- T/C [1]: 95 % of control
- T/C [2]: 99 % of control
- T/C [3]: 98 % of control
- T/C [4]: 103 % of control
- T/C (dose: 400.0 mg/kg/injection, schedule: Q01DX009 (ip), vehicle: Klucel (hydroxypropylcellulose) (HPC)): 93 % of control

SMILES: O=[N+]([O-])c1nccn1CC(O)CO (stereo not given)
- T/C [17]: 100 % of control
- T/C [18]: 105 % of control
- T/C [10]: 104 % of control
- T/C [11]: 102 % of control
- T/C [12]: 106 % of control
- T/C (dose: 400.0 mg/kg/injection, schedule: Q01DX009 (ip), vehicle: saline): 107 % of control

SMILES: CN(N=O)C(N)=O
- T/C (dose: 3.0 mg/kg/injection, schedule: Q01DX009 (ip), vehicle: saline): 123 % of control
- T/C [18]: 107 % of control
